Experimental data reported in US10669287B2, “Curcumin-boron complex and pharmaceutical containing same” (JAPAN SCIENCE AND TECHNOLOGY AGENCY, priority 2016, dated 2020).

What was measured:
[1] = Stability of catalyst in neutral phosphate buffer without or under light irradiation (HPLC), Test Example 5; assay type: physicochemical; conditions: under light irradiation (660 nm)
Protocol: A neutral phosphate buffer containing a catalyst was incubated without light irradiation or under light irradiation (660 nm), and thereafter ethanol containing benzyl alcohol (as an internal standard) was added thereto, and analysis was performed by using HPLC.

[2] = test system: PC 12 cells; assay: Cytotoxicity under light irradiation, WST-8 cell viability, Test Example 2; assay type: cell-based, rat; conditions: LED 660 nm, 10 mW, 5 minutes, then 48 hours
Protocol: A culture medium for rat adrenal medulla-derived pheochromocytoma PC 12 cells (purchased from RIKEN, Japan) seeded on a poly-D-lysine-coated 96-well plate was replaced with 75 μL of a Dulbecco's modified Eagle's medium containing 0.1% horse serum, and the culture was incubated in a 5% CO2 atmosphere at 37° C. for 1 day, and 25 μL of a phosphate buffer saline (pH 7.4) containing a inventive compound was then added thereto. Thereafter, the mixed solution was incubated under LED irradiation (wavelength: 660 nm, 10 mW) (without light irradiation for dark) at 37° C. for 5 minutes. Further, the cell culture plate containing the reaction solution was incubated in a 5% CO2 atmosphere at 37° C. for 48 hours. Finally, the Cell Count Reagent SF (10 μL: purchased from NACALAI TESQUE, INC.) containing WST-8 was added, and the culture was incubated in a 5% CO2 atmosphere at 37° C. for 3 hours, and thereafter the cell viability was determined from the absorbance at 450 nm (reference wavelength: 655 nm).

[3] = target: T1, Met-enkephalin (ME) (Homo sapiens, UniProt P01210); assay: Aβ selectivity of oxygenation, Test Example 9; assay type: biochemical; conditions: peptide 20 μM, catalyst 5 μM, 780 nm (7 mW), 37° C., 30 minutes
T1 construct: angiotensin-IV (AT4), Met-enkephalin (ME), or somatostatin (Sst) (20 μM in each case)
Protocol: (§1) Aβ1-42 isopeptide (concentration: 250 μM in 0.1% aqueous solution of trifluoroacetic acid), angiotensin IV (200 μM aqueous solution), Met-enkephalin (200 μM aqueous solution), and somatostatin (200 μM aqueous solution) were added to a phosphate buffer or phosphate buffer saline (pH 7.4) (with 0.1 M aqueous solution of sodium hydroxide, as necessary) so that a final peptide concentration of 20 μM or 40 μM (pH 7.4) was reached. Before being subjected to oxygenation reaction, the Aβ1-42 solution was incubated at 37° C. for 1 to 3 hours. The phosphate buffer containing 40 μM of Aβ was diluted with a Dulbecco's modified Eagle's medium (DMEM, Life Technologies) containing 0.1% horse serum and buffered with 25 mM of 4-(2-hydroxyethyl)-1-piperazineethanesulfonic acid (HEPES).
(§2) Solutions of the compounds with a final concentration of 2 μM were used for evaluation of oxygenation of Aβ1-42. Solutions of the compounds with a final concentration of 5 μM were used for evaluation of peptide selectivity. […] A control group without light irradiation was additionally prepared. Reaction was analyzed through monitor analysis with a MALDI-TOF MS. Degree of oxygenation was determined as a ratio: degree of oxygenation (%)=(total of MS intensities for n[O] adducts)/(MS intensity for native+total of MS intensities for n[O] adducts)×100. Aliquots of each reaction solution were desalted with a ZipTip U-C18 (Merck Millipore), as necessary, before mass spectrometry.

[4] = target: T2, somatostatin (Sst) (Homo sapiens, UniProt P61278); assay: Aβ selectivity of oxygenation, Test Example 9; assay type: biochemical; conditions: peptide 20 μM, catalyst 5 μM, 780 nm (7 mW), 37° C., 30 minutes
T2 construct: angiotensin-IV (AT4), Met-enkephalin (ME), or somatostatin (Sst) (20 μM in each case)
Protocol: as §1, §2

[5] = target: T3, angiotensin-IV (AT4) (Homo sapiens, UniProt P01019); assay: Aβ selectivity of oxygenation, Test Example 9; assay type: biochemical; conditions: peptide 20 μM, catalyst 5 μM, 780 nm (7 mW), 37° C., 30 minutes
T3 construct: angiotensin-IV (AT4), Met-enkephalin (ME), or somatostatin (Sst) (20 μM in each case)
Protocol: as §1, §2

[6] = target: T4, Aβ peptide (Homo sapiens, UniProt P05067); assay: Aβ selectivity of oxygenation, Test Example 9; assay type: biochemical; conditions: peptide 20 μM, catalyst 5 μM (25 mol %), 780 nm (7 mW), 37° C., 30 minutes
T4 construct: Aβ1-42 isopeptide (concentration: 250 μM in 0.1% aqueous solution of trifluoroacetic acid)
Protocol: as §1, §2

[7] = target: T5, Aβ1-42 (Homo sapiens, UniProt P05067); assay: Degree of oxygenation of pre-aggregated Aβ1-42 (MALDI-TOF MS), Test Example 10; assay type: biochemical; conditions: pre-aggregated Aβ1-42 20 μM, catalyst 2 μM, phosphate buffer pH 7.4, 780 nm (14 mW), 37° C., 30 minutes
T5 construct: phosphate buffer (pH 7.4)/cell culture solution (containing 0.1% horse serum) (1:3) containing Aβ1-42 (10 μM)
Protocol: as §1
Solutions of the compounds with a final concentration of 2 μM were used for evaluation of oxygenation of Aβ1-42. Solutions of the compounds with a final concentration of 5 μM were used for evaluation of peptide selectivity. Each mixture was subjected to light irradiation with an LED (wavelength: 500, 660, or 780 nm) at a distance of approximately 5 to 10 cm at room temperature. A control group without light irradiation was additionally prepared. Reaction was analyzed through monitor analysis with a MALDI-TOF MS. Degree of oxygenation was determined as a ratio: degree of oxygenation (%)=(total of MS intensities for n[O] adducts)/(MS intensity for native+total of MS intensities for n[O] adducts)×100. Aliquots of each reaction solution were desalted with a ZipTip U-C18 (Merck Millipore), as necessary, before mass spectrometry.
a: A phosphate buffer (pH 7.4) solution containing pre-aggregated Aβ1-42 (20 μM, incubated at 37° C. for 3 hours) and a catalyst (2 μM) was subjected to light irradiation (wavelength: 660 nm) at 37° C. for 30 minutes. Thereafter, the reaction mixture was analyzed by using a MALDI-TOF MS.
a: A phosphate buffer (pH 7.4) containing pre-aggregated Aβ1-42 (20 μM, obtained through incubation at 37° C. for 3 hours) and a catalyst (2 μM) were subjected to light irradiation at 780 nm (14 mW) at 37° C. for 30 minutes. The reaction mixture was analyzed by using a MALDI-TOF MS.

[8] = test system: PC 12 cells; assay: Action on cells through selective oxygenation of Aβ1-42, WST-8 cell viability, Test Example 3; assay type: cell-based, rat; conditions: Aβ 10 μM, compound E 1 or 3 μM, 48 hours
Protocol: A phosphate buffer saline (pH 7.4) containing Aβ (40 μM) was incubated at 37° C. for 3 hours. Subsequently, the compound E was added thereto (4 or 12 μM). A culture medium for rat adrenal medulla-derived pheochromocytoma PC 12 cells (purchased from RIKEN, Japan) seeded on a poly-D-lysine-coated 96-well plate was replaced with 75 μL of a Dulbecco's modified Eagle's medium containing 0.1% horse serum, and the culture was incubated in a 5% CO2 atmosphere at 37° C. for 1 day, and 25 μL of the phosphate buffer saline (pH 7.4) containing Aβ and the compound E was then added thereto (final volume: 100 μL, final concentration of Aβ: 10 μM, final concentration of compound E: 1 or 3 μM). […] Finally, the Cell Count Reagent SF (10 μL: purchased from NACALAI TESQUE, INC.) containing WST-8 was added, and the culture was incubated in a 5% CO2 atmosphere at 37° C. for 3 hours, and thereafter the cell viability was determined from the absorbance at 450 nm (reference wavelength: 655 nm).
From the results shown in FIG. 4, an attempt was made to examine whether the toxicity of Aβ1-42 can be reduced through oxygenation of the Aβ1-42 in the presence of cells. […] The cell viability was determined through measurement of the absorption by WST-8 at 450 nm by using a plate reader.

T5 sequence (P05067 672-713): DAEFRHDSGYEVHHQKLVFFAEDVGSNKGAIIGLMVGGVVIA
T4 sequence (P05067 672-713): as above

O=C(O)CCCCCN1CCCc2cc(/C=C/C3=[O+][B-](F)(C(F)(F)C(F)(F)F)OC(/C=C/c4cc5c6c(c4)CCCN6CCC5)=C3Br)ccc21 (stereo not drawn) [Compound E]
stability of catalyst (ranking) [1]: stability was higher | toxicity under light irradiation (ranking) [2]: the lowest | oxygenation rate of Met-enkephalin [3]: lower than 5% | oxygenation rate of somatostatin [4]: lower than 5% | oxygenation rate of angiotensin-IV [5]: lower than 5% | oxygenation of pre-aggregated Aβ peptide [6]: 44% | Degree of oxygenation (%) of Aβ42 (λ = 780 nm) [7]: 58% | cell viability with Aβ1-42 and compound E ([8]; under LED irradiation 660 nm, 10 mW, 5 minutes): the cell viability was significantly improved | cell viability with Aβ1-42 and compound E ([8]; without light irradiation): significant cell death
